# Reference: patent publication US20250099448A1, “HETEROCYCLIC COMPOUNDS” (Hoffmann-La Roche Inc., priority 2022, published 2025)
# Target: T1, MAGL protein (Homo sapiens, UniProt Q99685)
# T1 sequence (Q99685 1-303): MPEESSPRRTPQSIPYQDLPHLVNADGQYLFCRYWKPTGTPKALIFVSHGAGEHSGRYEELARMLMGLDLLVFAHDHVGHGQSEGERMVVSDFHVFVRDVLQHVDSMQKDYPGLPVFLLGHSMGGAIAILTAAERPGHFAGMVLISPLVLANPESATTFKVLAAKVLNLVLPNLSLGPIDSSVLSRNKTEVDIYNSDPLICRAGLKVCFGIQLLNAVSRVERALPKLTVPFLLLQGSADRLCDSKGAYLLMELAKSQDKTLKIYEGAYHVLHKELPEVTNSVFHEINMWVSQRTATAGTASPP
# Experiment: 2-AG assay: MAGL inhibitory activity by hydrolysis of 2-arachidonoylglycerol to arachidonic acid, followed by mass spectrometry
# Assay type: biochemical
# Settings: 8 μM 2-arachidonoylglycerol, 15 min preincubation, 30 min reaction at RT, RapidFire MS readout
# Protocol: Compounds of formula (I) were profiled for MAGL inhibitory activity by determining the enzymatic activity by following the hydrolysis of the natural substrate 2-arachidonoylglycerol (2-AG) resulting in arachidonic acid, which can be followed by mass spectrometry. This assay is hereinafter abbreviated “2-AG assay”. The 2-AG assay was carried out in 384 well polypropylene assay plates. Compound dilutions were made in 100% DMSO in a polypropylene plate in 3-fold dilution steps to give a final concentration range in the assay from 12.5 μM to […]. Compound dilutions were added to MAGL protein in assay buffer (50 mM TRIS, 1 mM EDTA, 0.01% (v/v) Tween-20, 2.5% (v/v) DMSO). After shaking, the plate was incubated for 15 min at RT. To start the reaction, 2-arachidonoylglycerol in assay buffer was added. The final concentrations in the assay was […] for MAGL protein and 8 μM 2-arachidonoylglyerol. After shaking and 30 min incubation at RT, the reaction was quenched by the addition of two assay volumes of acetonitrile containing 4 μM of d8-arachidonic acid. The amount of arachidonic acid formed was traced by an online SPE system (Agilent Rapidfire) coupled to a triple quadrupole mass spectrometer. A C18 SPE cartridge (Agilent G9205A) was used in an acetonitrile/water liquid setup. The mass spectrometer was operated in negative electrospray mode following the mass transitions 303.1→259.1 for arachidonic acid and 311.1→267.0 for d8-arachidonic acid. The activity of the compounds was calculated based on the ratio of intensities [arachidonic acid/d8-arachidonic acid].
row,IC50,SMILES
1,0.45 nM,"CCOc1cc(C)nn1-c1ccc(C2CN(C(=O)N3CC4(CC(c5nnc(C6CC6)[nH]5)C4)C3)C2)cc1 [Example 449, [6-(5-cyclopropyl-4H-1,2,4-triazol-3-yl)-2-azaspiro[3.3]heptan-2-yl]-[3-[4-(5-ethoxy-3-methyl-pyrazol-1-yl)phenyl]azetidin-1-yl]methanone]"
2,8.88 nM,N=S(=O)(c1cccc(C(F)(F)F)c1)C1CCC2(CC1)CN(C(=O)N1CC3(CC(c4nc(C5CC5)n[nH]4)C3)C1)C2 (stereo not drawn) [Example 456]
3,67.8 nM,"O=C(N1CC2(CC(c3nc(C4CC4)n[nH]3)C2)C1)C12CC(Nc3cnc(C(F)(F)F)cn3)(C1)C2 [Example 473, [6-(3-cyclopropyl-1H-1,2,4-triazol-5-yl)-2-azaspiro[3.3]heptan-2-yl]-[3-[[5-(trifluoromethyl)pyrazin-2-yl]amino]-1-bicyclo[1.1.1]pentanyl]methanone]"
4,9.48 nM,"CS(=O)(=O)c1cnn(-c2ccc(C3CN(C(=O)N4CC5(CC(c6nnc(C7CC7)[nH]6)C5)C4)C3)cc2)c1 [Example 500, [6-(5-cyclopropyl-4H-1,2,4-triazol-3-yl)-2-azaspiro[3.3]heptan-2-yl]-[3-[4-(4-mesylpyrazol-1-yl)phenyl]azetidin-1-yl]methanone]"
5,0.17 nM,"CS(=O)(=O)c1ccccc1-c1ccc(C2CN(C(=O)N3CC4(CC(c5nc(C6CC6)n[nH]5)C4)C3)C2)cc1 [Example 516, [6-(3-cyclopropyl-1H-1,2,4-triazol-5-yl)-2-azaspiro[3.3]heptan-2-yl]-[3-[4-(2-mesylphenyl)phenyl]azetidin-1-yl]methanone]"
6,0.46 nM,"CCOc1cc(C)n(-c2ccc(C3CN(C(=O)N4CC5(CC(c6nnc(C7CC7)[nH]6)C5)C4)C3)cc2)n1 [Example 559, [6-(5-cyclopropyl-4H-1,2,4-triazol-3-yl)-2-azaspiro[3.3]heptan-2-yl]-[3-[4-(3-ethoxy-5-methyl-pyrazol-1-yl)phenyl]azetidin-1-yl]methanone]"
7,85.1 nM,"N=S(=O)(c1ccc(COC2CN(C(=O)N3CC4(CC(c5nc(C6(O)CC6)n[nH]5)C4)C3)C2)c(F)c1)C(F)(F)F (stereo not drawn) [Example 576, [3-[2-fluoro-4-(trifluoromethylsulfonimidoyl)benzyl]oxyazetidin-1-yl]-[6-[3-(1-hydroxycyclopropyl)-1H-1,2,4-triazol-5-yl]-2-azaspiro[3.3]heptan-2-yl]methanone]"
8,4.25 nM,"CNc1nnc(-c2ccc(C3CN(C(=O)N4CC5(CC(c6nnc(C7CC7)[nH]6)C5)C4)C3)cc2)s1 [Example 600, [6-(5-cyclopropyl-4H-1,2,4-triazol-3-yl)-2-azaspiro[3.3]heptan-2-yl]-[3-[4-[5-(methylamino)-1,3,4-thiadiazol-2-yl]phenyl]azetidin-1-yl]methanone]"
9,12.3 nM,"N=S(=O)(c1ccc(COC2CN(C(=O)N3CC4(CC(c5nc(C6CC6)n[nH]5)C4)C3)C2)c(F)c1)C(F)(F)F (stereo not drawn) [Example 632, [6-(3-cyclopropyl-1H-1,2,4-triazol-5-yl)-2-azaspiro[3,3]heptan-2-yl]-[3-[2-fluoro-4-(trifluoromethylsulfonimidoyl)benzyl]oxyazetidin-1-yl]methanone]"
10,0.03 nM,NC1(c2nnc(C3CC4(C3)CN(C(=O)N3CC5(CC(Cc6ccc(F)cc6C(F)(F)F)C5)C3)C4)[nH]2)CC1 [Example 636]
11,1500 nM,"O=C(N1CC2(CC(c3nc(C4CC4)n[nH]3)C2)C1)N1CC2(CC(n3cnc(O)n3)C2)C1 [Example 648, [6-(3-cyclopropyl-1H-1,2,4-triazol-5-yl)-2-azaspiro[3.3]heptan-2-yl]-[6-(3-hydroxy-1,2,4-triazol-1-yl)-2-azaspiro[3.3]heptan-2-yl]methanone]"
12,42.2 nM,N#Cc1cc(C(F)(F)F)ncc1O[C@H]1CCC2(C1)CN(C(=O)N1CC3(CC(c4nc(C5(O)CC5)n[nH]4)C3)C1)C2 [Example 696]
